Data from patent US20250339518A1 (priority 2023, published 2025).

Tests used:
Format in all cases: cell-based, murine
MB49-STING KO cell line = test system: MB49-STING KO cell line
[1] = test system: MB49-Double KO (MB49 2KO) cell line
MB49 cells [2] = test system: MB49 cells
MB49 cells [3] = test system: MB49 cells; remark: listed apart in the source

Row | Compound | VAX014-induced IFN-β production, pIRF3/IRF3 ratios and PD-L1/MHC-I surface expression after inhibitor preincubation (MB49-STING KO cell line) | PD-L1 and MHC-I surface expression (MB49-STING KO cell line) | IFN-β production [1] | Surface PD-L1 expression [1] | Type I IFN (IFN-β) production in culture supernatants (MB49 cells [2]) | PD-L1 surface expression (MB49 cells [3])
1 | CC(C)c1ccc2oc3nc(N)c(C(=O)O)cc3c(=O)c2c1 [Amlexanox] | nearly to baseline conditions of the untreated control | – | – | – | – | –
2 | Cc1ccc2c(=O)c3cccc(CC(=O)O)c3oc2c1C [DMXAA] | – | loss of PD-L1 and MHC-I | Complete loss | Complete loss | stimulated IFN production | able to induce PD-L1 expression
